Format in all cases: cell-based
The test system of assay [1] is PI3Kα wide type cell line SK-BR-3. In words: Cell Proliferation IC50 Assay (CellTiter-Glo), SK-BR-3. The following applies: SK-BR-3 (PI3Kα wild type), 72 hours, CellTiter-Glo, read-out: IC50 (μM) SK-BR-3. The procedure, abridged: (§1)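 Read-out was CellTiter-Glo luminescence after 72 h of compound exposure at 37 °C, 5% CO2. Cells had been plated overnight in complete medium before the compound was added at a 200-fold final dilution. IC50 was derived from percent inhibition.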

Assay [2] relates to PI3Kα H1047R mutation cell line MDA-MB-453. In words: Cell Proliferation IC50 Assay (CellTiter-Glo), MDA-MB-453. The following applies: MDA-MB-453 (H1047R), 72 hours, CellTiter-Glo, read-out: IC50 (μM) MDA-MB-453. The source says: PI3Kα H1047R mutation cell line T-47D and MDA-MB-453, E545K mutation cell line MDA-MB-361 and PI3Kα wide type cell line SK-BR-3 were purchased from Cobioer Biotech (cat. no CBP60397, CBP60386, CBP60383 and CBP60413 respectively). The CellTiter-Glo Direct Cell Proliferation Assay Kit was purchased from Prornega (cat. No. G7573)
For cell proliferation assay in each cell line: • a. Prepare complete medium (R PMI 1640, DMEM or McCoys): Add FBS and appropriate additives according to the information sheet provided by the vendor. Mix gently. • b. Prepare single cell suspension and count the cell numbers and adjust cells to appropriate density. • c. Add 80 μL of cell suspension to 96-well opaque-walled clear bottom plates according to the planned plate layout and place the plates in the CO2 incubator overnight. • d. Prepare intermediate plate: 10 μl of diluted test compounds or staurosporine solution (200×) is added to a 96 deep well plate. Then 390 μl of culture medium without FBS is added to the respective wells. • e. Transfer 20 μL of the solutions from the above intermediate plate to the wells of the plate prepared containing 80 μL of the culture medium and cells. The total dilution is 200 folds. • f. The cells were then incubated at 5% CO2, 37° C. for 72 hours. • g. Equilibrate the plate and its contents to room temperature for approximately 30 minutes. • h. Add 100 μL of CellTiter-Glo reagent to the assay plate • i. Mix contents for 10 minutes on an orbital shaker to induce cell lysis. • j. Allow the plate to incubate at room temperature for 10 minutes to stabilize luminescent signal, • k. Paste the clear bottom with white back seal and record luminescence with Varioskan LUX plate reader.
Inhibition % and IC50 value were calculated by the formula described below: […]

Assay [3] deals with PI3Kα H1047R mutation cell line T-47D. In words: Cell Proliferation IC50 Assay (CellTiter-Glo), T-47D. The following applies: T47D (H1047R), 72 hours, CellTiter-Glo, read-out: IC50 (μM) T47D. The procedure, abridged: as §1

Read-outs that look alike come from different tables or passages of the source.

This passage reports IC50 results from patent US20250136568A1, “FUSED HETEROCYCLIC COMPOUNDS AS PI3KALPHA INHIBITORS” (Nanjing Zenshine Pharmaceuticals Co., Ltd., priority 2021, published 2025).

For the compound `Cc1cc([C@@H](C)Nc2ccccc2C(=O)O)c2oc(-c3ccc4c(c3)CN(C)C4=O)c(C)c(=O)c2c1` (single isomer, unassigned) [Example 20B], the IC50 is > 10 µM in assay [1] (Homo sapiens); 0.07 µM in assay [2] (Homo sapiens); 0.048 µM in assay [3] (Homo sapiens, T47D, 72 h).
With `Cc1cc([C@@H](C)Nc2ccccc2C(=O)O)c2oc(-c3ccc(N4CCOCC4)cc3)c(C)c(=O)c2c1` (single isomer, unassigned) [Example 53A], the IC50 was > 10 µM in assay [1] (Homo sapiens); 0.12 µM in assay [2] (Homo sapiens); 0.09 µM in assay [3] (Homo sapiens, T47D, 72 h).
For `C[C@H](Nc1ccccc1C(=O)O)c1cc(Cl)cc2c(=O)cc(-c3ccc4nn(C)cc4c3)oc12` (single isomer, unassigned) [Example 98A], the concentration for half-maximal inhibition (IC50) was > 10 µM in assay [1], 0.09 µM in assay [2] and 0.038 µM in assay [3].
Regarding `CC(=O)N1CCN(c2ccc(-c3oc4c([C@H](C)Nc5ccccc5C(=O)O)cc(C)cc4c(=O)c3C)cc2)CC1` (single isomer, unassigned) [Example 123B], the half-inhibitory concentration (IC50) in assay [1] (Homo sapiens) was > 10 µM; in assay [2] (Homo sapiens) it was > 10 µM; in assay [3] (Homo sapiens, T47D, 72 h), > 10 µM.
On to `Cc1cc(C(C)Nc2ccccc2C(=O)O)c2oc(-c3ccccc3)cc(=O)c2c1` (stereo not drawn) [Example 1, 2-((1-(6-methyl-4-oxo-2-phenyl-4H-chromen-8-yl)ethyl)amino)benzoic acid], for which the IC50 in assay [1] (Homo sapiens) was > 10 µM; in assay [2] (Homo sapiens), 0.7 µM; in assay [3] (Homo sapiens, T47D, 72 h), 0.33 µM.
In the same order, the values of `Cc1ccc(-c2cc(=O)c3cc(C)cc(C(C)Nc4ccccc4C(=O)O)c3o2)cc1` (stereo not drawn) [Example 2, 2-((1-(6-methyl-4-oxo-2-(p-tolyl)-4H-chromen-8-yl)ethyl)amino)benzoic acid] are > 10 µM, 0.39 µM and 0.16 µM.
`Cc1cc(C(C)Nc2ccccc2C(=O)O)c2oc(-c3ccc(Cl)cc3)cc(=O)c2c1` (stereo not drawn) [Example 3, 2-((1-(2-(4-chlorophenyl)-6-methyl-4-oxo-4H-chromen-8-yl)ethyl)amino)benzoic acid]: the concentration for half-maximal inhibition (IC50) in assay [1] (Homo sapiens) is > 10 µM; in assay [2] (Homo sapiens), 0.56 µM; in assay [3] (Homo sapiens, T47D, 72 h), 0.75 µM.
In the same order, the values of `Cc1cc(C(C)Nc2ccccc2C(=O)O)c2oc(-c3ccc4c(c3)OCO4)cc(=O)c2c1` (stereo not drawn) [Example 4, 2-((1-(2-(benzo[d][1,3]dioxol-5-yl)-6-methyl-4-oxo-4H-chromen-8-yl)ethyl)amino)benzoic acid] are > 10 µM, 0.75 µM and 0.56 µM.
In the same order, the values of `Cc1cc(C(C)Nc2ccccc2C(=O)O)c2oc(-c3ccc4c(c3)CN(C)C4=O)cc(=O)c2c1` (stereo not drawn) [Example 6, 2-((1-(6-methyl-2-(2-methyl-1-oxoisoindolin-5-yl)-4-oxo-4H-chromen-8-yl)ethyl)amino)benzoic acid] are > 10 µM, 0.29 µM and 0.23 µM.
The like results for `Cc1cc(C(C)Nc2ccccc2C(=O)O)c2oc(-c3cnn(C)c3)cc(=O)c2c1` (stereo not drawn) [Example 10, 2-((1-(6-methyl-2-(1-methyl-1H-pyrazol-4-yl)-4-oxo-4H-chromen-8-yl)ethyl)amino)benzoic acid] were, in that order, > 10 µM, 2.44 µM and 0.86 µM.
For the compound `Cc1cc(C(C)Nc2ccccc2C(=O)O)c2oc(-c3cnn(CC(C)(C)O)c3)cc(=O)c2c1` (stereo not drawn) [Example 11, 2-((1-(2-(1-(2-hydroxy-2-methylpropyl)-1H-pyrazol-4-yl)-6-methyl-4-oxo-4H-chromen-8-yl)ethyl)amino)benzoic acid], the 50% inhibitory concentration (IC50) in assay [1] (Homo sapiens) was > 10 µM; in assay [2] (Homo sapiens), 2.49 µM; in assay [3] (Homo sapiens, T47D, 72 h) it was 1.98 µM.
Take `Cc1cc(C(C)Nc2ccccc2C(=O)O)c2oc(C3CCN(C(=O)OC(C)(C)C)CC3)cc(=O)c2c1` (stereo not drawn) [Example 13, 2-((1-(2-(1-(tert-butoxycarbonyl)piperidin-4-yl)-6-methyl-4-oxo-4H-chromen-8-yl)ethyl)amino)benzoic acid]: the IC50 was > 10 µM in assay [1] (Homo sapiens); 2.29 µM in assay [2] (Homo sapiens); 1.33 µM in assay [3] (Homo sapiens, T47D, 72 h).
The like results for `Cc1cc(C(C)Nc2ccccc2C(=O)O)c2oc(C3=CCN(C(=O)OC(C)(C)C)CC3)cc(=O)c2c1` (stereo not drawn) [Example 14, 2-((1-(2-(1-(tert-butoxycarbonyl)-1,2,3,6-tetrahydropyridin-4-yl)-6-methyl-4-oxo-4H-chromen-8-yl)ethyl)amino)benzoic acid] were, in that order, > 10 µM, 1.27 µM and 1 µM.
The like results for `Cc1cc(C(C)Nc2ccccc2C(=O)O)c2oc(C3CCNCC3)cc(=O)c2c1` (stereo not drawn) [Example 15, 2-((1-(6-methyl-4-oxo-2-(piperidin-4-yl)-4H-chromen-8-yl)ethyl)amino)benzoic acid] were, in that order, > 10 µM, > 10 µM and > 10 µM.
In the same order, the values of `Cc1cc(C(C)Nc2ccccc2C(=O)O)c2oc(C3CCN(c4ccccc4)CC3)cc(=O)c2c1` (stereo not drawn) [Example 18, 2-((1-(6-methyl-4-oxo-2-(1-phenylpiperidin-4-yl)-4H-chromen-8-yl)ethyl)amino)benzoic acid] are > 10 µM, 0.77 µM and 0.31 µM.
Take `Cc1cc(C(C)Nc2ccccc2C(=O)O)c2oc(C3=CCN(c4ccccc4)CC3)cc(=O)c2c1` (stereo not drawn) [Example 19, 2-((1-(6-methyl-4-oxo-2-(1-phenyl-1,2,3,6-tetrahydropyridin-4-yl)-4H-chromen-8-yl)ethyl)amino)benzoic acid]: the IC50 in assay [1] (Homo sapiens) is > 10 µM; in assay [2] (Homo sapiens) it was 1.39 µM; in assay [3] (Homo sapiens, T47D, 72 h), 0.35 µM.
The like results for `Cc1cc(C(C)Nc2ccccc2C(=O)O)c2oc(-c3ccc4c(c3)CN(C)C4=O)c(C)c(=O)c2c1` (stereo not drawn) [Example 20, 2-((1-(3,6-dimethyl-2-(2-methyl-1-oxoisoindolin-5-yl)-4-oxo-4H-chromen-8-yl)ethyl)amino)benzoic acid] were, in that order, > 10 µM, 0.18 µM and 0.12 µM.
In the same order, the values of `Cc1cc(C(C)Nc2ccc(Cl)nc2C(=O)O)c2oc(-c3ccc4c(c3)CN(C)C4=O)c(C)c(=O)c2c1` (stereo not drawn) [Example 22, 6-chloro-3-((1-(3,6-dimethyl-2-(2-methyl-1-oxoisoindolin-5-yl)-4-oxo-4H-chromen-8-yl)ethyl)amino)picolinic acid] are 5.07 µM, 0.63 µM and 0.72 µM.
The like results for `Cc1cc(C(C)Nc2ccccc2C(=O)O)c2oc(-c3ccc4c(c3)C(=O)N(C)C4)cc(=O)c2c1` (stereo not drawn) [Example 23, 2-((1-(6-methyl-2-(2-methyl-3-oxoisoindolin-5-yl)-4-oxo-4H-chromen-8-yl)ethyl)amino)benzoic acid] were, in that order, > 10 µM, 6.3 µM and 3.2 µM.
Regarding `Cc1cc(C(C)Nc2ccccc2C(=O)O)c2oc(-c3cc4ccccc4[nH]3)cc(=O)c2c1` (stereo not drawn) [Example 25, 2-((1-(2-(1H-indol-2-yl)-6-methyl-4-oxo-4H-chromen-8-yl)ethyl)amino)benzoic acid], the IC50 in assay [1] (Homo sapiens) was > 10 µM; in assay [2] (Homo sapiens), 0.32 µM; in assay [3] (Homo sapiens, T47D, 72 h), 0.27 µM.
The like results for `Cc1cc(C(C)Nc2ccccc2C(=O)O)c2oc(-c3cccs3)cc(=O)c2c1` (stereo not drawn) [Example 26, 2-((1-(6-methyl-4-oxo-2-(thiophen-2-yl)-4H-chromen-8-yl)ethyl)amino)benzoic acid] were, in that order, > 10 µM, 0.83 µM and 0.66 µM.
